Data: US10130642B2, “Neprilysin inhibitors” (THERAVANCE BIOPHARMA R&D IP, LLC, priority 2011, dated 2018)

Target: human NEP (Homo sapiens (Human), UniProt P08473)
Assay: In vitro enzyme inhibition assay, inhibitor potencies at human NEP
Conditions: not given

human NEP, sequence (P08473 52-750): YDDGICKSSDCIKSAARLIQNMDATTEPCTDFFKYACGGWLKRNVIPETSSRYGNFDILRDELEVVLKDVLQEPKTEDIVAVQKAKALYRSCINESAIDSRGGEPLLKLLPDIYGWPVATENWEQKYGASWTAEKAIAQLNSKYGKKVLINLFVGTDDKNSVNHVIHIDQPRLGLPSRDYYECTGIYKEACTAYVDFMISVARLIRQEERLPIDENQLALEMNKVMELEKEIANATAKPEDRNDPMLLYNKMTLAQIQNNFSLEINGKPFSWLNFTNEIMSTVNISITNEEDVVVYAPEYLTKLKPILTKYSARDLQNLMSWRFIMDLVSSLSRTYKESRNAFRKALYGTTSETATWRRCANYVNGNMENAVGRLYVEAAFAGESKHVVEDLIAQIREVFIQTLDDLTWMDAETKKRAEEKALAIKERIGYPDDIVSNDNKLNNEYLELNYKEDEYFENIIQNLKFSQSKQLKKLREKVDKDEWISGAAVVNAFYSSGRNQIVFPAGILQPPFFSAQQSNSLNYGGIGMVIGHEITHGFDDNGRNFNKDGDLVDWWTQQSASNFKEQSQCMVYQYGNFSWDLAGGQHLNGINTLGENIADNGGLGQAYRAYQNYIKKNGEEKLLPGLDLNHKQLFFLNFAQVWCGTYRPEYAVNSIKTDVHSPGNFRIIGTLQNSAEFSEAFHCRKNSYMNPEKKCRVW

| Structure (SMILES) | Ki [nM] |
| --- | --- |
| O=C(N[C@H](Cc1ccc(-c2ccccc2)cc1)C[C@@H](CO)C(=O)O)c1nc(Cl)n[nH]1 [Example 2A, (2S,4S)-5-Biphenyl-4-yl-4-[(5-chloro-2H-[1,2,4]-triazole-3-carbonyl)-amino]-2-hydroxymethyl-pentanoic acid] | 1.26 to 10 |
| O=C(N[C@H](Cc1ccc(-c2ccccc2)cc1)C[C@H](CO)C(=O)O)c1cnn[nH]1 [Example 4-1, (2R,4S)-5-Biphenyl-4-yl-2-hydroxymethyl-4-[(3H-[1,2,3]triazole-4-carbonyl)-amino]-pentanoic acid] | 1.26 to 10 |
| O=C(N[C@H](Cc1ccc(-c2ccccc2F)cc1)C[C@@H](CO)C(=O)O)c1cnn[nH]1 [Example 4-2, (2S,4S)-5-(2′-Fluorobiphenyl-4-yl)-2-hydroxymethyl-4-[(3H-[1,2,3]triazole-4-carbonyl)-amino]-pentanoic acid] | ≤ 1 |
| O=C(N[C@H](Cc1ccc(-c2cccc(F)c2)cc1)C[C@@H](CO)C(=O)O)c1cnn[nH]1 [Example 4-3, (2S,4S)-5-(3′-Fluorobiphenyl-4-yl)-2-hydroxymethyl-4-[(3H-[1,2,3]triazole-4-carbonyl)-amino]-pentanoic acid] | ≤ 1 |
| O=C(N[C@H](Cc1ccc(-c2ccccc2)cc1)C[C@@H](CO)C(=O)O)c1cn(O)nn1 [Example 4-7, (2S,4S)-5-Biphenyl-4-yl-2-hydroxymethyl-4-[(1-hydroxy-1H-[1,2,3]triazole-4-carbonyl)-amino]-pentanoic acid] | ≤ 1 |
| O=C(N[C@H](Cc1ccc(-c2ccccc2F)cc1)C[C@@H](CO)C(=O)O)c1cn(O)nn1 [Example 4-8, (2S,4S)-5-(2′-Fluorobiphenyl-4-yl)-2-hydroxymethyl-4-[(1-hydroxy-1H-[1,2,3]triazole-4-carbonyl)-amino]-pentanoic acid] | ≤ 1 |
| O=C(N[C@H](Cc1ccc(-c2cccc(Cl)c2)cc1)C[C@@H](CO)C(=O)O)c1c[nH]nn1 [Example 4-9, (2S,4S)-5-(3′-Chloro-biphenyl-4-yl)-2-hydroxymethyl-4-[(1H-[1,2,3]triazole-4-carbonyl)-amino]-pentanoic acid] | ≤ 1 |
| O=C(N[C@H](Cc1ccc(-c2cccc(Cl)c2)cc1)C[C@@H](CO)C(=O)O)c1cn(O)nn1 [Example 4-10, (2S,4S)-5-(3′-Chloro-biphenyl-4-yl)-2-hydroxymethyl-4-[(1-hydroxy-1H-[1,2,3]triazole-4-carbonyl)-amino]-pentanoic acid] | ≤ 1 |
| Cc1n[nH]c(C(=O)N[C@H](Cc2ccc(-c3ccccc3)cc2)C[C@@H](CO)C(=O)O)n1 [Example 4-13, (2S,4S)-5-Biphenyl-4-yl-2-hydroxymethyl-4-[(5-methyl-2H-[1,2,4]triazole-3-carbonyl)-amino]-pentanoic acid] | 12.6 to 100 |
| O=C(N[C@H](Cc1ccc(-c2ccccc2)cc1)C[C@@H](CO)C(=O)O)c1nc(O)n[nH]1 [Example 4-14, (2S,4S)-5-Biphenyl-4-yl-2-hydroxymethyl-4-[(5-hydroxy-2H-[1,2,4]triazole-3-carbonyl)-amino]-pentanoic acid] | ≤ 1 |
| O=C(N[C@H](Cc1ccc(-c2ccccc2F)cc1)C[C@@H](CO)C(=O)O)c1nc(Cl)n[nH]1 [Example 4-16, (2S,4S)-4-[(5-Chloro-2H-[1,2,4]triazole-3-carbonyl)-amino]-5-(2′-fluorobiphenyl-4-yl)-2-hydroxymethyl-pentanoic acid] | ≤ 1 |
| O=C(N[C@H](Cc1ccc(-c2ccccc2)cc1)C[C@@H](CO)C(=O)O)c1cc(O)n[nH]1 [Example 4-17, (2S,4S)-5-Biphenyl-4-yl-2-hydroxymethyl-4-[(5-hydroxy-2H-pyrazole-3-carbonyl)-amino]-pentanoic acid] | ≤ 1 |
| O=C(O)c1cc(C(=O)N[C@H](Cc2ccc(-c3ccccc3)cc2)C[C@@H](CO)C(=O)O)[nH]n1 [Example 4-18, 5-((1S,3S)-1-Biphenyl-4-ylmethyl-3-carboxy-4-hydroxy-butylcarbamoyl)-1H-pyrazole-3-carboxylic acid] | ≤ 1 |
| CN(C)C(=O)c1cc(C(=O)N[C@H](Cc2ccc(-c3ccccc3)cc2)C[C@H](CO)C(=O)O)[nH]n1 [Example 4-20, (2R,4S)-5-Biphenyl-4-yl-4-[(5-dimethylcarbamoyl-2H-pyrazole-3-carbonyl)-amino]-2-hydroxymethyl-pentanoic acid] | 12.6 to 100 |
| CN(C)C(=O)c1cc(C(=O)N[C@H](Cc2ccc(-c3ccccc3)cc2)C[C@@H](CO)C(=O)O)[nH]n1 [Example 4-21, (2S,4S)-5-Biphenyl-4-yl-4-[(5-dimethylcarbamoyl-2H-pyrazole-3-carbonyl)-amino]-2-hydroxymethyl-pentanoic acid] | 1.26 to 10 |
| O=C(N[C@H](Cc1ccc(-c2ccccc2)cc1)C[C@@H](CO)C(=O)O)c1cc(C(=O)N2CCC2)n[nH]1 [Example 4-24, (2S,4S)-4-{[5-(Azetidine-1-carbonyl)-2H-pyrazole-3-carbonyl]-amino}-5-biphenyl-4-yl-2-hydroxymethyl-pentanoic acid] | ≤ 1 |
| O=C(N[C@H](Cc1ccc(-c2ccccc2)cc1)C[C@@H](CO)C(=O)O)c1cc(C(=O)N2CCCC2)n[nH]1 [Example 4-25, (2S,4S)-5-Biphenyl-4-yl-2-hydroxymethyl-4-{[5-(pyrrolidine-1-carbonyl)-2H-pyrazole-3-carbonyl]-amino}-pentanoic acid] | ≤ 1 |
| O=C(N[C@H](Cc1ccc(-c2ccccc2)cc1)C[C@@H](CO)C(=O)O)c1cc(-c2ccccc2Cl)n[nH]1 [Example 4-27, (2S,4S)-5-Biphenyl-4-yl-4-{[5-(2-chloro-phenyl)-2H-pyrazole-3-carbonyl]-amino}-2-hydroxymethyl-pentanoic acid] | ≤ 1 |
| CCCCc1cc(C(=O)N[C@H](Cc2ccc(-c3ccccc3)cc2)C[C@@H](CO)C(=O)O)[nH]n1 [Example 4-28, (2S,4S)-5-Biphenyl-4-yl-4-[(5-butyl-2H-pyrazole-3-carbonyl)-amino]-2-hydroxymethyl-pentanoic acid] | ≤ 1 |
| O=C(N[C@H](Cc1ccc(-c2cccc(F)c2)cc1)C[C@@H](CO)C(=O)O)c1cc(-c2ccccc2Cl)n[nH]1 [Example 4-29, (2S,4S)-4-{[5-(2-Chlorophenyl)-2H-pyrazole-3-carbonyl]-amino}-5-(3′-fluorobiphenyl-4-yl)-2-hydroxymethyl-pentanoic acid] | ≤ 1 |
| O=C(N[C@H](Cc1ccc(-c2cccc(F)c2)cc1)C[C@@H](CO)C(=O)O)c1cc(-c2ccccn2)n[nH]1 [Example 4-30, (2S,4S)-5-(3′-Fluorobiphenyl-4-yl)-2-hydroxymethyl-4-[(5-pyridin-2-yl-2H-pyrazole-3-carbonyl)-amino]-pentanoic acid] | ≤ 1 |
| O=C(N[C@H](Cc1ccc(-c2ccccc2)cc1)C[C@@H](CO)C(=O)O)c1c[nH]c(O)n1 [Example 4-31, (2S,4S)-5-Biphenyl-4-yl-4-[(2-hydroxy-1H-imidazole-4-carbonyl)-amino]-2-hydroxymethyl-pentanoic acid] | 12.6 to 100 |
| O=C(NC(Cc1ccc(-c2ccccc2)cc1)C[C@@H](CO)C(=O)O)c1cc(F)c2nn[nH]c2c1 (stereo partly drawn) [Example 4-33, (S)-5-Biphenyl-4-yl-4-[(7-fluoro-3H-benzotriazole-5-carbonyl)-amino]-2-hydroxymethyl-pentanoic acid] | ≤ 1 |
| O=C(N[C@H](Cc1ccc(-c2cccc(Cl)c2)cc1)C[C@@H](CO)C(=O)O)c1ccc2nnn(O)c2c1 [Example 4-34, (2S,4S)-5-(3′-Chloro-biphenyl-4-yl)-4-[(3-hydroxy-3H-benzotriazole-5-carbonyl)-amino]-2-hydroxymethyl-pentanoic acid] | ≤ 1 |
| O=C(NC(Cc1ccc(-c2ccccc2)cc1)C[C@H](CO)C(=O)O)c1cc(Cl)c2nc[nH]c2c1 (stereo partly drawn) [Example 4-36, (R)-5-Biphenyl-4-yl-4-[(7-chloro-3H-benzoimidazole-5-carbonyl)-amino]-2-hydroxymethyl-pentanoic acid] | 1.26 to 10 |
| Cc1nc2c(Cl)cc(C(=O)NC(Cc3ccc(-c4ccccc4)cc3)C[C@H](CO)C(=O)O)cc2[nH]1 (stereo partly drawn) [Example 4-38, (R)-5-Biphenyl-4-yl-4-[(7-chloro-2-methyl-3H-benzoimidazole-5-carbonyl)-amino]-2-hydroxymethyl-pentanoic acid] | 12.6 to 100 |
| O=C(NC(Cc1ccc(-c2ccccc2)cc1)C[C@@H](CO)C(=O)O)c1cnc2nn[nH]c2c1 (stereo partly drawn) [Example 4-43, (S)-5-Biphenyl-4-yl-2-hydroxymethyl-4-[(1H-[1,2,3]triazolo[4,5-b]pyridine-6-carbonyl)-amino]-pentanoic acid] | 1.26 to 10 |
| O=C(N[C@H](Cc1ccc(-c2ccccc2)cc1)C[C@@H](CO)C(=O)O)c1cc(O)no1 [Example 4-45, (2S,4S)-5-Biphenyl-4-yl-4-[(3-hydroxy-isoxazole-5-carbonyl)-amino]-2-hydroxymethyl-pentanoic acid] | ≤ 1 |
| O=C(N[C@H](Cc1ccc(-c2ccccc2)cc1)C[C@@H](CO)C(=O)O)c1cnc(O)nc1 [Example 4-47, (2S,4S)-5-Biphenyl-4-yl-2-hydroxymethyl-4-[(2-hydroxy-pyrimidine-5-carbonyl)-amino]-pentanoic acid] | ≤ 1 |
| C[C@@](CO)(C[C@@H](Cc1ccc(-c2ccccc2)cc1)NC(=O)c1nc(Cl)n[nH]1)C(=O)O [Example 6-1, (2S,4R)-5-Biphenyl-4-yl-4-[(5-chloro-2H-[1,2,4]triazole-3-carbonyl)-amino]-2-hydroxymethyl-2-methyl-pentanoic acid] | 1.26 to 10 |

Same assay, conditions: pKi values at human NEP; recombinant human NEP, fluorogenic peptide substrate, 37° C.

| Structure (SMILES) | pKi |
| --- | --- |
| O=C(N[C@H](Cc1ccc(-c2ccccc2)cc1)C[C@@H](CO)C(=O)O)c1cnn[nH]1 [Example 1B, (2S,4S)-5-Biphenyl-4-yl-2-hydroxymethyl-4-[(3H-[1,2,3]triazole-4-carbonyl)-amino]-pentanoic acid] | ≥9.0 |
| O=C(N[C@H](Cc1ccc(-c2cccc(F)c2)cc1)C[C@@H](CO)C(=O)O)c1nc(Cl)n[nH]1 [Example 3B, (2S,4S)-4-[(5-Chloro-2H-[1,2,4]triazole-3-carbonyl)amino]-5-(3′-fluorobiphenyl-4-yl)-2-hydroxymethyl-pentanoic acid] | ≥9.0 |
| COCCN(C)C(=O)c1cc(C(=O)N[C@H](Cc2ccc(-c3ccccc3)cc2)C[C@@H](CO)C(=O)O)[nH]n1 [Example 4-22] | 8.0-8.9 |
